Test results: patent US20240368203A1, “DEGRADATION OF (EGFR) BY CONJUGATION OF EGFR INHIBITORS WITH E3 LIGASE LIGAND AND METHODS OF USE” (BeiGene, Ltd., priority 2022, published 2024)

Columns and labels:
[1] = tested on: EGFR-Del19/T790M/C797S; assay: EGFR degradation HTRF assay in H1975-clone #28 cells; type: cell-based; conditions: H1975-clone #28 (Del19/T790M/C797S) cells, 16 h treatment; for DC50: IC50 (DC50), read-out: DC50(nM) H1975 # 28 DTC; for Dmax (%) H1975 # 28 DTC: maximum percentage of inhibition (degradation)
Method: (§1) H1975-clone #28(Del19/T790M/C797S) and H1975-clone #25(L858R/T790M/C797S). EGFR-Del19/T790M/C797S and EGFR-L858R/T790M/C797S were stably expressed in H1975 cell lines by lentivirus-mediated over-expression, respectively. The EGFR over-expressed cells then underwent knockout, in which the EGFR targeting sgRNA was designed to only target the endogenous EGFR copies and preserve the exogenous EGFR copies. Followed by knockout, the edited H1975 cells were seeded in 96 well plates at the concentration of […], cultured for about 2 weeks to allow single clones formation. The formed clones were screened by DNA sequencing and whole exon sequencing analysis for the desired edition.
(§2) H1975-clone #28, and H1975-clone #25 were finally confirmed as homozygous Del19/T790M/C797S EGFR, and L858R/T790M/C797S EGFR clones, respectively.
(§3) H1975-#25 and H1975-#28 cells are treated with compounds diluted in 0.2% DMSO cell culture medium on day 2, incubate for 16 h, 37° C., 5% CO2. the final concentration of compounds in all assay is start with 10 uM, 5-fold dilution, total 8 doses were included.
(§4) After 16 h treatment, add HTRF lysis buffer to each well; seal the plate and incubate 1 hour at room temperature on a plate shaker; Once the cells are lysed, 16 μL of cell lysate are transferred to a PE 384-well HTRF detection plate; 4 μL of pre-mixed HTRF antibodies are added to each well; Cover the plate with a plate sealer, spin 1000 rpm for 1 min, Incubate overnight at room temperature; Read on BMG PheraStar with HTRF protocol (337 nm-665 nm-620 nm).
(§5) The inhibition (degradation) percentage of the compound was calculated by the following equation:
(§6) Inhibition percentage of Compound=100−100×(Signal−low control)/(High control−low control),
(§7) The IC50 (DC50) value of a compound can be obtained by fitting the following equation
(§8) Wherein, X and Y are known values, and IC50, Hillslope, Top and Bottom are the parameters obtained by fitting with software. Y is the inhibition percentage (calculated from the equation), X is the concentration of the compound; IC50 is the concentration of the compound when the 50% inhibition is reached. The smaller the IC50 value is, the stronger the inhibitory ability of the compound is. Vice versa, the higher the IC50 value is, the weaker the ability the inhibitory ability of the compound is; Hillslope represents the slope of the fitted curve, generally around 1 *; Bottom represents the minimum value of the curve obtained by data fitting, which is generally 0%±20%; Top represents the maximum value of the curve obtained by data fitting, which is generally 100%±20%. The experimental data were fitted by calculating and analyzing with Dotmatics data analysis software.

[2] = target: T1, EGFR-L858R/T790M/C797S (Homo sapiens, UniProt P00533, C797S/L858R/T790M); assay: EGFR degradation HTRF assay in H1975-clone #25 cells; type: cell-based; conditions: 16 h treatment; for DC50: H1975-clone #25 (L858R/T790M/C797S) cells, IC50 (DC50), read-out: DC50(nM) H1975 # 25-LTC; for Dmax: NCI-H1975, H1975-clone #25 (L858R/T790M/C797S) cells, maximum percentage of inhibition (degradation), read-out: Dmax (%) H1975 # 25-LTC
T1 construct: expressed in transfected cells; host or cells: H1975-clone #25 (lentiviral over-expression, endogenous EGFR knocked out)
Method: as §1, §2, §3, §4, §5, §6, §7, §8

T1 sequence (P00533 25-1210 T790M/C797S/L858R): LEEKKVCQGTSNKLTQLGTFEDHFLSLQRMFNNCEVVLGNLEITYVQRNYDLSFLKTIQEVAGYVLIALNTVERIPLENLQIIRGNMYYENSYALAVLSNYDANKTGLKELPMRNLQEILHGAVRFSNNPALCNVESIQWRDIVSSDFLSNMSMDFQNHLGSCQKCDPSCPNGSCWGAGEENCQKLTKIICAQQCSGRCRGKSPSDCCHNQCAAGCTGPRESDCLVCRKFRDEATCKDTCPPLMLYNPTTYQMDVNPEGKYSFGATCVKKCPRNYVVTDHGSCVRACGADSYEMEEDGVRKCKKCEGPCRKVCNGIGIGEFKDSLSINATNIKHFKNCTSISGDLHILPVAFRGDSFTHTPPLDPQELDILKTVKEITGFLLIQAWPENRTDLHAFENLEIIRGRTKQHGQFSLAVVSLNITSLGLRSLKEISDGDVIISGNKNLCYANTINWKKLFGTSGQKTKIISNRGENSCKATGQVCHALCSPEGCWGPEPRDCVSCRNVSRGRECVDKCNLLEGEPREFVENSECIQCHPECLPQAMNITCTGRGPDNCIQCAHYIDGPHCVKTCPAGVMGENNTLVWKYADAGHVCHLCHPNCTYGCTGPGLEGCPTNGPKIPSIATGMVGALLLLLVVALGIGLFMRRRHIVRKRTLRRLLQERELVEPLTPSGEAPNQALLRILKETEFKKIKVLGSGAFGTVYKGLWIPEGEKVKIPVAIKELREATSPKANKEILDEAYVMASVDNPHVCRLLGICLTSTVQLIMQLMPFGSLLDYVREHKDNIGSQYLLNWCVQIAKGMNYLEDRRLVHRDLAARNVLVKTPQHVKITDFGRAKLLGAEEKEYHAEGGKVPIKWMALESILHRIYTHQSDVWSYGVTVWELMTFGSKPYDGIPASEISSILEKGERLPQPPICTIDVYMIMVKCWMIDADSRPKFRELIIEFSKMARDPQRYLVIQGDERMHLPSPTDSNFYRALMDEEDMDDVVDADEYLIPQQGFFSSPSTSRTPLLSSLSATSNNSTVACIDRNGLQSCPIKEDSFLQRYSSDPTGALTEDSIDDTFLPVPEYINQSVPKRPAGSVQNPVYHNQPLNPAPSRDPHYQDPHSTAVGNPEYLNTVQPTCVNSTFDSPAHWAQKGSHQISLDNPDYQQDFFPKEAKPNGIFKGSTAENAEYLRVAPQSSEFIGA

| DC50 [1] [nM] | DC50 [2] [nM] | Dmax [2] [%] | Compound | Dmax (%) H1975 # 28 DTC [1] [%] |
| --- | --- | --- | --- | --- |
| 1 | 2.2 | 87 | CCc1cc(Nc2ncc(Br)c(Nc3ccc4nc(C)c(F)cc4c3P(C)(C)=O)n2)c(OC)cc1N1CCC2(CCN(CCCc3cccc4c3n(C)c(=O)n4C3CCC(=O)NC3=O)CC2)CC1 (stereo not shown) [Example 28, 3-(4-(3-(9-(4-((5-bromo-4-((5-(dimethylphosphoryl)-3-fluoro-2-methylquinolin-6-yl)amino)pyrimidin-2-yl)amino)-2-ethyl-5-methoxyphenyl)-3,9-diazaspiro[5.5]undecan-3-yl)propyl)-3-methyl-2-oxo-2,3-dihydro-1H-benzo[d]imidazol-1-yl)piperidine-2,6-dione] | 80 |
| 1.7 | 1.7 | 92 | CCc1cc(Nc2ncc(Br)c(Nc3ccc4nc(C)c(F)cc4c3P(C)(C)=O)n2)c(OC)cc1N1CCC(N2CC3(CCN(c4cc(F)c([C@H]5CCC(=O)NC5=O)c(F)c4)CC3)C2)CC1 (single isomer, unassigned) [Example 18] | 91 |
| 0.9 | 1.2 | 94 | CCc1cc(Nc2ncc(Cl)c(Nc3ccc4nc(C)c(F)cc4c3P(C)(C)=O)n2)c(OC)cc1N1CC2(C1)CN(C1CCN(c3cc(F)c([C@H]4CCC(=O)NC4=O)c(F)c3)CC1)C2 [Example 61, (R)-3-(4-(4-(6-(4-((5-chloro-4-((5-(dimethylphosphoryl)-3-fluoro-2-methylquinolin-6-yl)amino)pyrimidin-2-yl)amino)-2-ethyl-5-methoxyphenyl)-2,6-diazaspiro[3.3]heptan-2-yl)piperidin-1-yl)-2,6-difluorophenyl)piperidine-2,6-dione] | 94 |
| 1.4 | 0.7 | 80 | CCc1cc(Nc2ncc(Br)c(Nc3ccc4nc(C)c(F)cc4c3P(C)(C)=O)n2)c(OC)cc1N1CCC(N2CC3(CN(c4cccc5c4n(C)c(=O)n5C4CCC(=O)NC4=O)C3)C2)CC1 (stereo not shown) [Example 26, 3-(4-(6-(1-(4-((5-bromo-4-((5-(dimethylphosphoryl)-3-fluoro-2-methylquinolin-6-yl)amino)pyrimidin-2-yl)amino)-2-ethyl-5-methoxyphenyl)piperidin-4-yl)-2,6-diazaspiro[3.3]heptan-2-yl)-3-methyl-2-oxo-2,3-dihydro-1H-benzo[d]imidazol-1-yl)piperidine-2,6-dione] | 75 |
| 2.2 | 3.4 | 92 | CCc1cc(Nc2ncc(Br)c(Nc3ccc4nc(C)c(F)cc4c3P(C)(C)=O)n2)c(OC)cc1N1CCC2(CC1)CCN(C1CCN(c3cc(F)c([C@H]4CCC(=O)NC4=O)c(F)c3)CC1)CC2 [Example 1, (R)-3-(4-(4-(9-(4-((5-bromo-4-((5-(dimethylphosphoryl)-3-fluoro-2-methylquinolin-6-yl)amino)pyrimidin-2-yl)amino)-2-ethyl-5-methoxyphenyl)-3,9-diazaspiro[5.5]undecan-3-yl)piperidin-1-yl)-2,6-difluorophenyl)piperidine-2,6-dione] | 89 |
| 1.3 | 2.4 | 92 | CCc1ccc2c(P(C)(C)=O)c(Nc3nc(Nc4cc(CC)c(N5CCC(N6CC7(CN(c8cc(F)c([C@H]9CCC(=O)NC9=O)c(F)c8)C7)C6)CC5)cc4OC)ncc3Br)ccc2n1 (single isomer, unassigned) [Example 27] | 91 |
| 1.5 | 4.9 | 85 | CCc1ncc2c(P(C)(C)=O)c(Nc3nc(Nc4cc(C)c(N5CCC6(CCN(CCc7cc(F)c([C@H]8CCC(=O)NC8=O)c(F)c7)CC6)CC5)cc4OC)ncc3Cl)ccc2n1 [Example 42, (R)-3-(4-(2-(9-(4-((5-chloro-4-((5-(dimethylphosphoryl)-2-ethylquinazolin-6-yl)amino)pyrimidin-2-yl)amino)-5-methoxy-2-methylphenyl)-3,9-diazaspiro[5.5]undecan-3-yl)ethyl)-2,6-difluorophenyl)piperidine-2,6-dione] | 93 |
| 1.6 | 3.1 | 91 | CCc1ccc2c(P(C)(C)=O)c(Nc3nc(Nc4cc(CC)c(N5CCC(N6CC7(CCN(c8cc(F)c([C@H]9CCC(=O)NC9=O)c(F)c8)CC7)C6)CC5)cc4OC)ncc3Br)ccc2n1 [Example 58, (R)-3-(4-(2-(1-(4-((5-bromo-4-((5-(dimethylphosphoryl)-2-ethylquinolin-6-yl)amino)pyrimidin-2-yl)amino)-2-ethyl-5-methoxyphenyl)piperidin-4-yl)-2,7-diazaspiro[3.5]nonan-7-yl)-2,6-difluorophenyl)piperidine-2,6-dione] | 91 |
| 1.8 | 2 | 82 | COc1cc(N2CCC3(CCN(CC4CCN(c5ccc6c(c5)CN(C5CCC(=O)NC5=O)C6=O)CC4)CC3)CC2)c(C)cc1Nc1ncc(Br)c(Nc2ccc3nc(C)ccc3c2P(C)(C)=O)n1 (stereo not shown) [Example 72, 3-(5-(4-((9-(4-((5-bromo-4-((5-(dimethylphosphoryl)-2-methylquinolin-6-yl)amino)pyrimidin-2-yl)amino)-5-methoxy-2-methylphenyl)-3,9-diazaspiro[5.5]undecan-3-yl)methyl)piperidin-1-yl)-1-oxoisoindolin-2-yl)piperidine-2,6-dione] | 82 |
| 2.5 | 2.8 | 89 | CCc1cc(Nc2ncc(Br)c(Nc3ccc4nc(C)c(F)cc4c3P(C)(C)=O)n2)c(OC)cc1N1CCC2(CCN(CCN(C)c3cccc4c3CN(C3CCC(=O)NC3=O)C4=O)CC2)CC1 (stereo not shown) [Example 34, 3-(4-((2-(9-(4-((5-bromo-4-((5-(dimethylphosphoryl)-3-fluoro-2-methylquinolin-6-yl)amino)pyrimidin-2-yl)amino)-2-ethyl-5-methoxyphenyl)-3,9-diazaspiro[5.5]undecan-3-yl)ethyl)(methyl)amino)-1-oxoisoindolin-2-yl)piperidine-2,6-dione] | 80 |
| 2.7 | 3.3 | 94 | CCOc1cc(N2CCC(N3CC(N4CCC(c5cc(F)c([C@H]6CCC(=O)NC6=O)c(F)c5)CC4)C3)CC2)c(CC)cc1Nc1ncc(Cl)c(Nc2ccc3nc(C)c(F)cc3c2P(C)(C)=O)n1 [Example 15, (R)-3-(4-(1-(1-(1-(4-((5-chloro-4-((5-(dimethylphosphoryl)-3-fluoro-2-methylquinolin-6-yl)amino)pyrimidin-2-yl)amino)-5-ethoxy-2-ethylphenyl)piperidin-4-yl)azetidin-3-yl)piperidin-4-yl)-2,6-difluorophenyl)piperidine-2,6-dione] | 95 |
| 3.5 | 4.2 | 92 | CCc1cc(Nc2ncc(Br)c(Nc3ccc4nc(C)c(F)cc4c3P(C)(C)=O)n2)c(OC)cc1N1CCC2(CCN(CCN(C)c3cc(F)c([C@H]4CCC(=O)NC4=O)c(F)c3)CC2)CC1 [Example 44, (R)-3-(4-((2-(9-(4-((5-bromo-4-((5-(dimethylphosphoryl)-3-fluoro-2-methylquinolin-6-yl)amino)pyrimidin-2-yl)amino)-2-ethyl-5-methoxyphenyl)-3,9-diazaspiro[5.5]undecan-3-yl)ethyl)(methyl)amino)-2,6-difluorophenyl)piperidine-2,6-dione] | 90 |
| 2.7 | 4.9 | 91 | CCc1ccc2c(P(C)(C)=O)c(Nc3nc(Nc4cc(CC)c(N5CCC(N6CCN(C7CCN(c8cc(F)c([C@H]9CCC(=O)NC9=O)c(F)c8)CC7)CC6)CC5)cc4OC)ncc3Br)ccc2n1 (single isomer, unassigned) [Example 10] | 88 |
